Biological target: T1, progesterone receptor (PR) (Homo sapiens, UniProt P06401)
T1 construct: endogenous in cells; host or cells: T47D breast carcinoma cells
T1 sequence (P06401 1-933): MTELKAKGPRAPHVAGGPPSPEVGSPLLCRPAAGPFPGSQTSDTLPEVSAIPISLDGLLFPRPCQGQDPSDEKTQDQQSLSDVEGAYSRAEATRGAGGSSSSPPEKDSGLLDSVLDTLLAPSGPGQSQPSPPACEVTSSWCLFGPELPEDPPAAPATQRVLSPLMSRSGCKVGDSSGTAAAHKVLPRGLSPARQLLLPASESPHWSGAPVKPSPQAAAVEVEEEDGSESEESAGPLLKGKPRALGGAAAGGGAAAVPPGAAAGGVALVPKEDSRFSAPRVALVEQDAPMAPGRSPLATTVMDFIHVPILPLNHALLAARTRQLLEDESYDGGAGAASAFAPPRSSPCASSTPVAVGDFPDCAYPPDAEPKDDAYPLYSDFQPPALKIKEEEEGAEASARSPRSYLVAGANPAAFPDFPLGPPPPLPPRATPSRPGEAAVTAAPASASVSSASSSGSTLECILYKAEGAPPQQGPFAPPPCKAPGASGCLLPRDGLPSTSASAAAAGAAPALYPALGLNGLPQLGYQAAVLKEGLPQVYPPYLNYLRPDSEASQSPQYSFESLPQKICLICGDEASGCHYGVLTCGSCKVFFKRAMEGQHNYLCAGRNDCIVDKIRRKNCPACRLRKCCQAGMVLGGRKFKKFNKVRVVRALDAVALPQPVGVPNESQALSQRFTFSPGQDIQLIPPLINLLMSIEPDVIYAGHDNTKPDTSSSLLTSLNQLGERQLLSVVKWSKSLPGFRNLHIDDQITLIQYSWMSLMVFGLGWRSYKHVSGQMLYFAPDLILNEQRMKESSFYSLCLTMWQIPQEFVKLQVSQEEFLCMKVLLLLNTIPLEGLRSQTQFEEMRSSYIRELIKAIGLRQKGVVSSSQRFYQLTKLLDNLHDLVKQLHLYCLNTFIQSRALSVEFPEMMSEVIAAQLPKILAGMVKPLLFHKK
Test: T47D alkaline phosphatase (AP) potency assay
Type: cell-based
Method: The method described by Di Lorenzo et al was followed with minor adaptation (Di Lorenzo et al., [1991]). In brief, T47D breast carcinoma cells were seeded in 96-well plates at 50,000 cell/well in RPMI medium supplemented with 10% FBS. After overnight culture, the medium was changed to RPMI phenol red free containing 2% charcoal-stripped FBS. After 24 h, the cells were treated with progesterone (Sigma Aldrich, Gillingham, UK) or the library compounds. Progesterone and the test compounds were dissolved in DMSO (100%) and diluted into treatment medium to give a final DMSO (v/v) concentration of 0.1%. After incubation (48 h) the treatment was finalised by twice washing the plates with PBS. Cells were lysed by two freeze-thaw cycles (− 80 °C). Cellular alkaline phosphatase activity was determined by adding Femto ELISA-AP substrate (200 μL) and optical density measurements taken at 5 and 10 min intervals at a wavelength of 405 nm. Data was interpreted using Graphpad Prism (GraphPad, CA, USA) using the model: dose-response simulation/inhibition, log(agonist/inhibition) vs. response – variable slope (four parameters). For compounds where EC50 > 10,000, an antagonist profile was assumed and the experiment was repeated with the inclusion of progesterone (3 mM) with the library compound. Data shown in the supporting information (Additional file 1: Figure S32).

EC50 (agonist response, 48 h incubation, average of at least n = 3 ± SD): 4.7 ± 0.07 nM | fold more potent than structural isomer 4 (compound 2 versus 4): ~1000 fold
Structure (SMILES): CC1(C)OC(=S)Nc2ccc(-c3cccnc3F)cc21 [Compound 2, 6-(2-fluoropyridin-3-yl)-4,4-dimethyl-1H-benzo[d][1,3]oxazine-2(4H)-thione]

— paper PMC6328429, “Synthesis of a benzoxazinthione derivative of tanaproget and pharmacological evaluation for PET imaging of PR expression” (EJNMMI Radiopharmacy and Chemistry, 2019)
